{"source": "patent US20040127518A1", "about": "“Modulation of anxiety through blockade of anandamide hydrolysis” (priority 2002, published 2004)", "key": {"Elevated zero maze test": {"assay": "Elevated zero maze test", "assay_type": "in vivo, rat", "details": "adult rats; i.p. 30 min before test; UCM532 5 and 10 mg kg-1; UCM597 0.05-0.1 mg kg-1", "protocol": "(§1) We dissolved FAAH inhibitors and rimonabant in dimethylsulfoxide (DMSO)/saline (7/3 and 9/1, respectively); we administered FAAH inhibitors by i.p. injection 30 min before tests and rimonabant 30 min before UCM532. The elevated zero maze was comprised of a black Perspex annular platform (105 cm diameter, 10 cm width) elevated to 65 cm above ground level, divided equally into four quadrants (Bickerdike, M. J. et al., Eur. J. Pharmacol., 271, 403-411 (1994); Shepherd, J. K. et al., Psychopharmacology, 116, 56-64 (1994)). […] We placed the rats in a closed quadrant and video recorded them for 5-min periods, thoroughly cleaning the maze between sessions. […] Results are expressed as percent time in open quadrant/total time (percent time open). Results were analyzed by one-way ANOVA followed by Tukey's test. We recorded motor activity of each rat in an Opto-Varimex cage (Columbus Instruments, Columbus, Ohio) linked on-line to a computer and placed in a sound-attenuated room illuminated by a 20-W white light. The amount of time spent in ambulatory activity was analyzed using an Auto-Track software (Columbus Instruments, Columbus, Ohio) as described elsewhere (Ali, M. M. et al., Neurosci. Lett., 284, 57-60 (2000); Wedzony, K. et al., Neuropsychopharmacology, 23, 547-559 (2000)). […] We analyzed data by overall one-way ANOVA followed by Tukey's test for individual between-group comparisons. […]"}, "[1]": {"assay": "Motor activity (Opto-Varimex cage)", "assay_type": "in vivo, rat", "protocol": "as §1"}}}
{"smiles": "CCCCNC(=O)Oc1ccc(OCc2ccccc2)cc1", "note": "[UCM532, n-Butylcarbamic acid 4-benzyloxyphenyl ester]", "values": [{"measurement": "percent time open, elevated zero maze", "setting": "Elevated zero maze test", "value": "anxiolytic-like responses"}, {"measurement": "ambulation time", "setting": "[1]; adult rats, 20 min session, ≧10 mg kg-1", "value": "modest decrease"}, {"measurement": "pup movement", "setting": "[1]; rat pups, 5 mg kg-1, data not shown", "value": "no effect"}]}
